What all share (format): binding
Assay [1] concerns the target T1, Obp56d (Bactrocera dorsalis, UniProt A0A6I9V3V6).
T1 construct: gene LOC105221864; recombinant, E. coli Rosetta (DE3), pET-32a(+) vector, designed from CDS; about 29 kDa on SDS-PAGE; anion-exchange purified
T1 sequence (A0A6I9V3V6 19-138): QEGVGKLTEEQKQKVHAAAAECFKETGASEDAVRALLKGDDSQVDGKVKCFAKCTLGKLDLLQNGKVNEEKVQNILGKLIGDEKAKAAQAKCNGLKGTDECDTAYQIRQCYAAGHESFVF
The assay is described as follows: fluorescence titration, microplate reader (ex […] nm). The following applies: 2 uM Obp, 2-16 uM 1-NPN, 50 mM Tris-HCl, pH 7.4; fluorescent probe; one-site fit.

For assay [2], the target named is T2, Obp56d-2 (Bactrocera dorsalis, UniProt A0ACM8RD04).
T2 construct: gene LOC105221865; recombinant, E. coli Rosetta (DE3), pET-32a(+) vector, designed from CDS; about 29 kDa on SDS-PAGE; anion-exchange purified
T2 sequence (A0ACM8RD04 19-138): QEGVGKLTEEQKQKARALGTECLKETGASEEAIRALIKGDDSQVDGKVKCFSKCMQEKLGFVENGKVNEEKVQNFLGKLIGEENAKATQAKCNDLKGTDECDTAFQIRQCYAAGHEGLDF
The assay is described as above. The following applies: 2 uM Obp, 2-16 uM 1-NPN, 50 mM Tris-HCl, pH 7.4; fluorescent probe; one-site fit.

Assay [3] concerns the target T1, Obp56d. Kind of assay: competitive displacement of 1-NPN fluorescence. The following applies: 3-HA 0-16 uM; 2 uM Obp, 50 mM Tris-HCl, pH 7.4; competitive with 1-NPN.
In assay [4] the target is T2, Obp56d-2. The assay is described as follows: competitive displacement of 1-NPN fluorescence. The following applies: 3-HA 0-16 uM; 2 uM Obp, 50 mM Tris-HCl, pH 7.4; competitive with 1-NPN.

Results on two compounds are retold here after article PMC9477868, “Gut bacteria induce oviposition preference through ovipositor recognition in fruit fly” (Communications Biology, 2022).

Molecules are shown by their SMILES.

For the compound `c1ccc(Nc2cccc3ccccc23)cc1` [1-NPN], the dissociation constant result is “Then the dissociation constants of the Obp56d and Obp56d-2 were generated” at Obp56d [1]; “Then the dissociation constants of the Obp56d and Obp56d-2 were generated” at Obp56d-2 [2].
With `CCC=CCCOC(C)=O` [3-HA], the “% reduction of relative fluorescence intensity of the Obp/1-NPN complex” value at Obp56d [3] and at Obp56d-2 [4] was over 50% each time.
